13 compounds from ChEMBL document CHEMBL1201862, “PubChem BioAssay data set” (2004) can be followed below.

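In this assay, cells in 96-well plates receive the compound at five concentrations for 48 hours. Endpoints are linearly interpolated between the surrounding concentrations. At the GI50, growth is halved.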 Calls of active or inactive are those of the source. Cut-off read from the data, not from the text of the source: active = GI50 up to about 1.1 µM and inactive = higher. A value given as a limit tells only on which side of the number the result lay.

Test systems include 786-0; CCRF-CEM; COLO 205; HCT-116; HL-60; HOP-62; HT-29; KM12; LOX IMVI; NCI-H460; NCI-H522; OVCAR-3; SF-268; SF-295; SNB-19; SR; TK-10; CAKI-1.
Holding throughout (experiment): NCI-60 cell line screen, 48 h

Regarding `CCOC(C[C@H](O[Si](C)(C)C(C)(C)C)[C@H]1COC(=S)S1)OCC`, the GI50 in the assay with 786-0 is > 100 µM (inactive); in the assay with CCRF-CEM, 34.9 µM (inactive); in the assay with COLO 205, 66.1 µM (inactive); with HCT-116, 39.2 µM (inactive); with HL-60 it was 29 µM (inactive); in the assay with HOP-62, 43.6 µM (inactive). Besides, the GI50 was 14.5 µM (inactive) in the assay with HT-29; 50.7 µM (inactive) in the assay on KM12; 52.6 µM (inactive) in the assay on LOX IMVI; 53.6 µM (inactive) in the assay on NCI-H460; 23.3 µM (inactive) in the assay on NCI-H522; 59.4 µM (inactive) with OVCAR-3. Moreover, the GI50 in the assay on SF-268 is > 100 µM (inactive); with SF-295, 37.7 µM (inactive); with SNB-19, 28.8 µM (inactive); in the assay with SR it was 41.7 µM (inactive); in the assay on TK-10, > 100 µM (inactive).
Regarding `O=C(O)C12C3C4C1C1C2C3C1(Br)C41OCCO1` (stereo not drawn), the GI50 with 786-0, in the assay on CCRF-CEM, in the assay on COLO 205, in the assay on HCT-116, in the assay with HL-60 and in the assay with HOP-62 was > 100 µM (inactive) each time. Also, the GI50 in the assay on HT-29, in the assay with KM12, in the assay on LOX IMVI, in the assay on NCI-H460, in the assay on NCI-H522 and in the assay with OVCAR-3 was > 100 µM (inactive) in each case. The GI50 in the assay with SF-268, in the assay with SF-295, with SNB-19 and with TK-10 was > 100 µM (inactive) each time.
On to `Cc1c2cc[n+](C)cc2c(C)c2c1[nH]c1ccc(Oc3ccccc3)cc12`, for which the GI50 in the assay on 786-0 is 0.518 µM (active); with CAKI-1 it was 2.12 µM (inactive); in the assay with CCRF-CEM, 1.38 µM (inactive); in the assay on COLO 205, 0.845 µM (active); with HCT-116, 1.29 µM (inactive); in the assay with HOP-62, 0.518 µM (active). Further, the GI50 with HT-29 was 0.843 µM (active); in the assay on KM12 it was 0.736 µM (active); with LOX IMVI it was 1.61 µM (inactive); with OVCAR-3, 1.14 µM (inactive); in the assay with SF-268, 1.03 µM (active); in the assay with SF-295, 0.294 µM (active). Moreover, in the assay on SNB-19, the GI50 is 0.506 µM (active).
Consider `COc1ccc2nc(NC(=O)C(=O)C(C#N)c3ccc([N+](=O)[O-])cc3)sc2c1` (stereo not drawn), for which the GI50 with 786-0, in the assay on CAKI-1, with COLO 205, in the assay with HCT-116, in the assay with HOP-62 and in the assay on HT-29 was > 100 µM (inactive) in each case. For the same compound, the GI50 is > 100 µM (inactive) with KM12; > 100 µM (inactive) in the assay on LOX IMVI; > 100 µM (inactive) with NCI-H460; 55.5 µM (inactive) in the assay with NCI-H522; > 100 µM (inactive) in the assay on OVCAR-3; > 100 µM (inactive) in the assay with SF-268. Moreover, the GI50 in the assay with SF-295, in the assay with SNB-19 and in the assay with TK-10 was > 100 µM (inactive) in each case.
With `CCCCC(N)CSSCC(N)CCCC` (stereo not drawn), the GI50 in the assay on 786-0 is 17.9 µM (inactive); with CCRF-CEM it was 20.3 µM (inactive); in the assay on COLO 205 it was 52.7 µM (inactive); in the assay on HCT-116, 17.8 µM (inactive); with HL-60 it was 16.4 µM (inactive); in the assay on HOP-62 it was 27.3 µM (inactive). In addition, the GI50 in the assay on HT-29 was 23.7 µM (inactive); with KM12, 49.2 µM (inactive); in the assay on LOX IMVI, 17.6 µM (inactive); in the assay with NCI-H460, 36.7 µM (inactive); in the assay with NCI-H522, 15 µM (inactive); in the assay on OVCAR-3 it was 20.8 µM (inactive). Besides, the GI50 with SF-268 was 26.9 µM (inactive); with SF-295, 33.3 µM (inactive); in the assay on SNB-19, 58.5 µM (inactive); with SR, 17.5 µM (inactive); in the assay on TK-10, > 100 µM (inactive).
Regarding `CC(C)C(Nc1c2ccccc2[n+](C)c2ccccc12)C(=O)O` (stereo not drawn), the GI50 in the assay on 786-0 is > 100 µM (inactive); in the assay with CAKI-1 it was > 100 µM (inactive); in the assay on COLO 205, > 100 µM (inactive); with HCT-116 it was > 100 µM (inactive); in the assay on HL-60, 99.5 µM (inactive); in the assay on HOP-62 it was > 100 µM (inactive). The GI50 with HT-29 is > 100 µM (inactive); with KM12, > 100 µM (inactive); in the assay on NCI-H460 it was > 100 µM (inactive); with NCI-H522 it was 1.3 µM (inactive); in the assay with OVCAR-3, > 100 µM (inactive); in the assay with SF-268, > 100 µM (inactive). For the same compound, the GI50 in the assay with SF-295, in the assay with SNB-19, with SR and in the assay on TK-10 was > 100 µM (inactive) throughout.
As to `O=C(CN1CCOCC1)Nc1nc(-c2ccc(Cl)cc2)cs1`, the GI50 is 60.3 µM (inactive) in the assay with 786-0; 34.4 µM (inactive) in the assay on CAKI-1; 21.3 µM (inactive) with CCRF-CEM; 31.9 µM (inactive) in the assay with COLO 205; 17.3 µM (inactive) in the assay with HL-60; 22.6 µM (inactive) in the assay on HOP-62. Further, the GI50 in the assay on HT-29 is 36.1 µM (inactive); with KM12, 19.5 µM (inactive); in the assay with LOX IMVI it was 22.2 µM (inactive); in the assay with NCI-H460, 28.3 µM (inactive); in the assay on OVCAR-3 it was 22.3 µM (inactive); in the assay on SF-268, 25.1 µM (inactive). In addition, the figures for the GI50 in the assay on SF-295, with SNB-19 and with TK-10 were 25.8 µM (inactive), 39.1 µM (inactive) and 34.4 µM (inactive), respectively.
Regarding `CCN(CC)c1oc(N(CC)CC)c(C(=O)Nc2ccccn2)c(=O)c1C(C)=O`, the GI50 with 786-0, in the assay with CAKI-1, with CCRF-CEM, in the assay with COLO 205, with HCT-116 and in the assay on HOP-62 was > 100 µM (inactive) in each case. Besides, the GI50 is > 100 µM (inactive) with HT-29; > 100 µM (inactive) with KM12; > 100 µM (inactive) in the assay with NCI-H460; > 100 µM (inactive) in the assay on NCI-H522; > 100 µM (inactive) in the assay with OVCAR-3; 90.8 µM (inactive) with SF-268. In addition, the GI50 in the assay with SNB-19, in the assay with SR and in the assay with TK-10 was > 100 µM (inactive) each time.
On to `NC(=S)N1N=C2c3ccccc3CC[C@H]2[C@@H]1c1cccs1`, for which the GI50 in the assay with 786-0 was 43.9 µM (inactive); in the assay on CCRF-CEM it was 18.8 µM (inactive); in the assay with COLO 205, 16.5 µM (inactive); in the assay with HCT-116 it was 28.8 µM (inactive); with HL-60, 16.1 µM (inactive); with HOP-62, 33.3 µM (inactive). Besides, the GI50 is 24.1 µM (inactive) with HT-29; 26.6 µM (inactive) in the assay on KM12; 66.5 µM (inactive) in the assay on LOX IMVI; 33 µM (inactive) with NCI-H460; 16.8 µM (inactive) with NCI-H522; 36.2 µM (inactive) with OVCAR-3. Also, the GI50 is 40.6 µM (inactive) with SF-268; 15.8 µM (inactive) in the assay with SF-295; 75.7 µM (inactive) in the assay with SNB-19; 4.68 µM (inactive) with SR; 64.6 µM (inactive) with TK-10.
Take `COc1cc(OC)c(/C=C2\N=C(C)N(Nc3nnc(NN4C(=O)/C(=C/c5c(OC)cc(OC)cc5OC)N=C4C)c4ccccc34)C2=O)c(OC)c1`: the GI50 in the assay on 786-0, in the assay with CCRF-CEM, in the assay on COLO 205, with HCT-116, with HL-60 and with HOP-62 was > 100 µM (inactive) in each case. For the same compound, the GI50 in the assay with HT-29, in the assay with KM12, in the assay with LOX IMVI, in the assay on NCI-H460, in the assay on NCI-H522 and in the assay on SF-268 was > 100 µM (inactive) throughout. For the same compound, the results for the GI50 in the assay on SF-295, in the assay with SNB-19 and in the assay with SR were 93.3 µM (inactive), > 100 µM (inactive) and > 100 µM (inactive), respectively.
Turning to `NCCCCNc1ccc2c(=O)[nH][nH]c(=O)c2c1`, the GI50 in the assay with 786-0, in the assay on CAKI-1, with CCRF-CEM, with COLO 205, in the assay with HCT-116 and in the assay on HL-60 was > 100 µM (inactive) in each case. The GI50 in the assay with HOP-62, with HT-29, in the assay on KM12, in the assay with LOX IMVI, with NCI-H522 and in the assay on OVCAR-3 was > 100 µM (inactive) each time. For the same compound, the GI50 in the assay with SF-268, in the assay on SF-295, in the assay on SNB-19, in the assay with SR and in the assay on TK-10 was > 100 µM (inactive) in each case.
Consider `CC(=O)c1ccccc1NC(=O)C(=O)C(C(=O)c1ccc2ccccc2c1)C1OC(=O)c2ccccc21` (stereo not drawn), for which the GI50 is 6.61 µM (inactive) with 786-0; 10.6 µM (inactive) in the assay with CAKI-1; 4.42 µM (inactive) in the assay with CCRF-CEM; 14.9 µM (inactive) with COLO 205; 13.1 µM (inactive) in the assay on HCT-116; 9.91 µM (inactive) in the assay on HL-60. The GI50 was 10.7 µM (inactive) in the assay with HOP-62; 34.8 µM (inactive) in the assay with HT-29; 18.3 µM (inactive) in the assay on KM12; 7.71 µM (inactive) in the assay on LOX IMVI; 5.43 µM (inactive) with NCI-H460; 10.7 µM (inactive) in the assay on NCI-H522. The GI50 in the assay on OVCAR-3 is 9.82 µM (inactive); in the assay on SF-268, 9.27 µM (inactive); in the assay with SNB-19, 4.73 µM (inactive); in the assay on TK-10, 34 µM (inactive).
Turning to `CCCc1nc(N)nc(C(=O)Nc2cccc(C(F)(F)F)c2)c1CC`, the GI50 in the assay with 786-0, with CAKI-1, in the assay on HCT-116, with HL-60, in the assay on HOP-62 and in the assay with HT-29 was > 100 µM (inactive) in each case. In addition, the GI50 in the assay with KM12, with LOX IMVI, in the assay on NCI-H460, with OVCAR-3, with SF-268 and in the assay on SF-295 was > 100 µM (inactive) each time. Besides, the GI50 in the assay on SNB-19 and in the assay on TK-10 was > 100 µM (inactive) each time.
